One experiment deals with slime organisms. Briefly: Action against slime organisms (MIC in Allen's nutrient solution). It counts as cell-based. As to conditions: 336 h, about 10^6 germs/ml, 3 weeks at room temperature.
The subject of another experiment is Chaetomium globosum. Nature of the experiment: MIC against fungi, beerwort/peptone agar. The following applies: 28° C., 60 to 70% relative humidity, 2 weeks.
Another experiment deals with Aspergillus niger. Nature of the experiment: MIC against fungi, beerwort/peptone agar. The following applies: 28° C., 60 to 70% relative humidity, 2 weeks.
For a further experiment, the system named is Eschercihia coli. Briefly: Action against bacteria (MIC in broth agar). The following applies: Escherichia coli, 28° C., 60 to 70% relative humidity, 2 weeks. The format is cell-based.
In a further experiment the test system is Staphylococcus aureus. Nature of the experiment: Action against bacteria (MIC in broth agar). The following applies: 28° C., 60 to 70% relative humidity, 2 weeks. It counts as cell-based.
The next experiment concerns Sclerophoma pityophila. Briefly: MIC against fungi, beerwort/peptone agar. The following applies: 28° C., 60 to 70% relative humidity, 2 weeks.
The next experiment relates to Alternaria tenuis. Nature of the experiment: MIC against fungi, beerwort/peptone agar. As to conditions: 28° C., 60 to 70% relative humidity, 2 weeks.
The test system of a further experiment is Penicillium glaucum. Nature of the experiment: MIC against fungi, beerwort/peptone agar. The following applies: 28° C., 60 to 70% relative humidity, 2 weeks.
Another experiment has as its system Polyporus versicolor. Briefly: MIC against fungi, beerwort/peptone agar.
Another experiment deals with Coniophora puteana. Nature of the experiment: MIC against fungi, beerwort/peptone agar. As to conditions: 28° C., 60 to 70% relative humidity, 2 weeks.
In another experiment the test system is Trichoderma viride. Briefly: MIC against fungi, beerwort/peptone agar.
For experiment [1], the system named is microbes (bacteria, yeasts and moulds) isolated from microbially decayed cooling lubricant use dilutions. Nature of the experiment: Testing as a preservative for cooling lubricants. The following applies: 1% active compound in mineral oil cooling lubricant; 5% strength use dilutions contaminated daily for 3 months. The procedure: 1% of the active compound is added, as a preservative, to a cooling lubricant based on mineral oil. 5% strength use dilutions of the cooling lubricant are massively contaminated daily for 3 months with microbes (bacteria, yeasts and moulds) isolated from microbially decayed cooling lubricant use dilutions.

In the next experiment the test system is Lentinus tigrinus. Briefly: MIC against fungi, beerwort/peptone agar. As to conditions: 28° C., 60 to 70% relative humidity, 2 weeks.
A further experiment has as its system Aureobasidium pullulans. Briefly: MIC against fungi, beerwort/peptone agar.
The mark [2] stands for this setting: 28° C., 60 to 70% relative humidity, 2 weeks.

≈ marks a conversion by molar mass, not a printed value. Read-outs that look alike come from different tables or passages of the source.

By MIC is commonly meant the lowest concentration found to suppress growth. In the case of `N#CC=C(Cl)SCCC#N` [Example 1, 1-chloro-2-cyanovinyl 2-cyano-ethyl sulphide], in the experiment with slime organisms, inhibition of growth (MIC) required 0.15 µg/mL (≈ 0.869 µM).

Turning to `N#CCCSC(Cl)=C(Cl)C#N` [Example 2, 1,2-dichloro-2-cyano-vinyl 2-cyano-ethyl sulphide], the MIC against Chaetomium globosum (336 h) was less than 20 µg/mL; against Aspergillus niger (336 h) it was less than 20 µg/mL; with Eschercihia coli (336 h, read-out: MIC), 200 µg/mL (≈ 966 µM); in the experiment with slime organisms it was 2 µg/mL (≈ 9.66 µM); in the experiment on Staphylococcus aureus (336 h, read-out: MIC), 35 µg/mL (≈ 169 µM); against Sclerophoma pityophila (Sydowia polyspora, 336 h), 20 µg/mL (≈ 96.6 µM).

With `N#CC(Cl)=CSC(Cl)=C(Cl)C#N` [Example 5, 1,2-dichloro-2-cyano-vinyl 2-chloro-2-cyano-vinyl sulphide], the minimal inhibitory concentration (MIC) in the experiment with Chaetomium globosum (336 h) is 2 µg/mL (≈ 8.35 µM); against Alternaria tenuis (Alternaria alternata, 336 h), 20 µg/mL (≈ 83.5 µM); against Penicillium glaucum (Penicillium, 336 h), 1 µg/mL (≈ 4.18 µM); in the experiment on Aspergillus niger (336 h), 2 µg/mL (≈ 8.35 µM); with Polyporus versicolor (Trametes versicolor, 336 h) it was 1 µg/mL (≈ 4.18 µM); with Coniophora puteana (336 h), less than 0.1 µg/mL. Moreover, the minimum inhibitory concentration (MIC) turned out to be 10 µg/mL (≈ 41.8 µM) against Trichoderma viride (336 h); 20 µg/mL (≈ 83.5 µM) in the experiment on Eschercihia coli (336 h, read-out: MIC); 0.5 µg/mL (≈ 2.09 µM) against Lentinus tigrinus (336 h); 5 µg/mL (≈ 20.9 µM) with Aureobasidium pullulans (336 h); 0.35 µg/mL (≈ 1.46 µM) in the experiment on slime organisms; 10 µg/mL (≈ 41.8 µM) with Staphylococcus aureus (336 h, read-out: MIC). Also, the minimal inhibitory concentration (MIC) with Sclerophoma pityophila (Sydowia polyspora, 336 h) turned out to be 0.5 µg/mL (≈ 2.09 µM). Also, in experiment [1], the “state of the use dilutions at the end of the testing period” value was “free from germs”.

With `N#CC(Cl)=C(Cl)SC(Cl)=C(Cl)C#N` [Example 8, bis-(1,2-dichloro-2-cyano-vinyl) sulphide], the minimal inhibitory concentration (MIC) was 2 µg/mL (≈ 7.3 µM) with Chaetomium globosum (336 h); 2 µg/mL (≈ 7.3 µM) against Alternaria tenuis; 1 µg/mL (≈ 3.65 µM) with Penicillium glaucum; 2 µg/mL (≈ 7.3 µM) against Aspergillus niger (336 h); 1 µg/mL (≈ 3.65 µM) in the experiment with Polyporus versicolor (Trametes versicolor, 336 h); less than 0.1 µg/mL in the experiment with Coniophora puteana. Besides, the minimum inhibitory concentration (MIC) was 10 µg/mL (≈ 36.5 µM) with Trichoderma viride (336 h); 50 µg/mL (≈ 183 µM) in the experiment with Eschercihia coli (336 h, read-out: MIC); 0.5 µg/mL (≈ 1.83 µM) in the experiment on Lentinus tigrinus (336 h); 1 µg/mL (≈ 3.65 µM) with Aureobasidium pullulans (336 h); less than 20 µg/mL in the experiment on Staphylococcus aureus (336 h, read-out: MIC); 0.5 µg/mL (≈ 1.83 µM) in the experiment with Sclerophoma pityophila (Sydowia polyspora, 336 h).

For the compound `N#CC(Cl)=C(Cl)SC(Cl)=C(Cl)C#N` [Example 9, bis-(1,2-dichloro-2-cyano-vinyl) sulphide], the MIC against Chaetomium globosum is 2.5 µg/mL (≈ 9.13 µM); with Alternaria tenuis it was 0.75 µg/mL (≈ 2.74 µM); against Penicillium glaucum it was 2.5 µg/mL (≈ 9.13 µM); with Aspergillus niger, 2.5 µg/mL (≈ 9.13 µM); against Polyporus versicolor (Polyporus versicolor, 28° C., 60 to 70% relative humidity, 2 weeks), 1 µg/mL (≈ 3.65 µM); in the experiment on Coniophora puteana it was 0.5 µg/mL (≈ 1.83 µM). Moreover, the MIC was determined as 10 µg/mL (≈ 36.5 µM) with Trichoderma viride (setting [2]); 25 µg/mL (≈ 91.3 µM) with Eschercihia coli; 1 µg/mL (≈ 3.65 µM) with Lentinus tigrinus; 1 µg/mL (≈ 3.65 µM) with Aureobasidium pullulans (setting [2]); 10 µg/mL (≈ 36.5 µM) with Staphylococcus aureus; 0.75 µg/mL (≈ 2.74 µM) with Sclerophoma pityophila.

Consider `N#CC(Cl)=CS(=O)(=O)c1ccccc1` [α-Chloro-β-phenylsulphonyl-acrylonitrile, α-Chloro-β-phenylsulphonyl acrylonitrile, reference compound], for which the minimal inhibitory concentration (MIC) amounted to 50 µg/mL (≈ 220 µM) in the experiment with Chaetomium globosum (336 h); 35 µg/mL (≈ 154 µM) against Penicillium glaucum (Penicillium, 336 h); 50 µg/mL (≈ 220 µM) against Aspergillus niger (336 h); 200 µg/mL (≈ 878 µM) in the experiment on Eschercihia coli (336 h, read-out: MIC); 500 µg/mL (≈ 2200 µM) in the experiment with Staphylococcus aureus (336 h, read-out: MIC).
